Test results from paper PMC11273930, “Bioactive Bioxanthracene and Cyclodepsipeptides from the Entomopathogenic Fungus Blackwellomyces roseostromatus BCC56290” (Antibiotics, 2024).
Values after ≈ are worked out from the molar mass of the structure shown. Read-outs that look alike come from different tables or passages of the source. Where a SMILES comes first, the peptide text is derived from it. [ ]: non-standard residue; d: D form. PhLac = O=C(O)[C@@H](O)Cc1ccccc1; NMeA = CN[C@@H](C)C(=O)O

Tests used:
[1] = tested on: Acinetobacter baumanii (DSM 30008); test: Antimicrobial assay (MIC); assay type: cell-based; parameters: key: -: no inhibition observed
Experimental: (§1) The antimicrobial activity of the isolated secondary metabolites was determined using our established protocol, against clinically relevant microorganisms obtained from the German Collection of Microorganisms and Cell Cultures (DSMZ, Braunschweig, Germany). These included Staphylococcus aureus (DSM 346), Bacillus subtilis (DSM 10), Acinetobacter baumanii (DSM 30008), Escherichia coli (DSM 1116), Chromobacterium violaceum (DSM 30191), Pseudomonas aeruginosa (PA14), Mycolicibacterium smegmatis (ATCC 700084), Candida albicans (DSM 1665), Mucor hiemalis (DSM 2656), Rhodotorula glutinis (DSM 10134), Schizosaccharomyces pombe (DSM 70572) and Pichia anomala (DSM 6766). Nystatin was used as an antifungal positive control whereas oxytetracycline, ciprofloxacin, gentamicin, and kanamycin were used as positive controls against Gram-positive and Gram-negative bacteria.

[2] = tested on: Mycobacterium smegmatis (ATCC 700084); test: Antimicrobial assay (MIC); assay type: cell-based; parameters: key to MIC (µg/mL): -: no inhibition observed
Experimental: as §1

[3] = tested on: Pichia anomala (DSM 6766); test: Antimicrobial assay (MIC); assay type: cell-based; parameters: key to MIC (µg/mL): -: no inhibition observed
Experimental: as §1

[4] = tested on: Mucor hiemalis (DSM 2656); test: Antimicrobial assay (MIC); assay type: cell-based; parameters: key to MIC (µg/mL): -: no inhibition observed
Experimental: as §1

[5] = tested on: Pseudomonas aeruginosa (PA14); test: Antimicrobial assay (MIC); assay type: cell-based; parameters: key to MIC (µg/mL): -: no inhibition observed
Experimental: as §1

[6] = tested on: Chromobacterium violaceum (DSM 30191); test: Antimicrobial assay (MIC); assay type: cell-based; parameters: key to MIC (µg/mL): -: no inhibition observed
Experimental: as §1

[7] = tested on: Staphylococcus aureus (DSM 346); test: Antimicrobial assay (MIC); assay type: cell-based; parameters: key to MIC (µg/mL): -: no inhibition observed
Experimental: as §1

[8] = tested on: Rhodotorula glutinis (DSM 10134); test: Antimicrobial assay (MIC); assay type: cell-based; parameters: key to MIC (µg/mL): -: no inhibition observed
Experimental: as §1

[9] = tested on: Bacillus subtilis (DSM 10); test: Antimicrobial assay (MIC); assay type: cell-based; parameters: key to MIC (µg/mL): -: no inhibition observed
Experimental: as §1

[10] = tested on: Candida albicans (DSM 1665); test: Antimicrobial assay (MIC); assay type: cell-based; parameters: key to MIC (µg/mL): -: no inhibition observed
Experimental: as §1

[11] = tested on: Escherichia coli (DSM 1116); test: Antimicrobial assay (MIC); assay type: cell-based; parameters: key to MIC (µg/mL): -: no inhibition observed
Experimental: as §1

[12] = tested on: Schizosaccharomyces pombe (DSM 70572); test: Antimicrobial assay (MIC); assay type: cell-based; parameters: key to MIC (µg/mL): -: no inhibition observed
Experimental: as §1

[13] = tested on: KB3.1 (cervix) endocervical adenocarcinoma; assay type: cell-based, human
Experimental: (§2) In vitro cytotoxic activity of the isolated compounds was tested by applying the MTT (3-(4,5-dimethylthiayol-2-yl)-2,5-diphenyltetrazolium bromide) assay as previously reported. The mammalian cell lines used in the tests were sourced from DSMZ and included mouse fibroblasts (L929) and endocervical adenocarcinoma (KB3.1), human lung carcinoma (A549), breast adenocarcinoma (MCF-7), human ovarian cancer (SKOV-3), prostate carcinoma (PC-3), and epidermoid carcinoma cells (A431).

[14] = tested on: L929 (murine) mouse fibroblasts; test: Cytotoxicity (MTT) assay; assay type: cell-based
Experimental: as §2

Caenorhabditis elegans = test: Nematicidal activity assay; assay type: in vivo; details: J4 and adult C. elegans, 18 h, 24 °C, corrected by Schneider-Orelli formula vs methanol control, mean ± SD (n ≥ 3)
Experimental: The nematicidal activity assay was conducted following a previously described procedure with slight modifications. C. elegans was cultured on nematode growth medium (NGM) containing 3 g NaCl, 20 g agar, 2.5 g peptone, 1 mL 1 M CaCl2, 25 mL of 1 M (pH 6.0) KPO4, 1 mL 1 M MgSO4, and 1 mL cholesterol (5 mg/mL in ethanol) per liter of medium. Plates were coated with Escherichia coli strain OP50, which served as the food source for nematodes. Synchronization of the nematode population was performed using a high egg density plate (~120 h). The plate was rinsed three times with 4 mL of 0.9% NaCl solution and then transferred to a 15 mL falcon tube. The nematode suspension was centrifuged at 1000 rpm for 3 min, and the supernatant was discarded. This procedure was repeated until a clear nematode suspension was obtained. After the last washing step, 2 mL of the suspension was mixed with 5 mL of bleaching solution (1 mL sodium hypochlorite solution, 0.5 mL 5 M NaOH, and 3.5 mL Milli-Q water). The solution was gently shaken for approximately 5 min to break down the nematode tissue, and monitored under the microscope. The reaction was stopped by adding 7 mL 0.9% NaCl solution when traces of adults were still visible. Subsequently, the suspension was centrifuged at 2500 rpm for 2 min and washed 3 times as previously described. After the final washing step, the supernatant was removed, and the volume was adjusted to 7 mL with 0.9% NaCl solution. The nematode egg suspension was incubated at 23 °C on a rotary shaker at 80 rpm for 18 h. The hatched nematodes were transferred to a fresh NGM plate supplemented with E.coli OP50. After 50–70 h, the J4 and adult C. elegans were washed from the plate as mentioned above. The nematode concentration was determined and diluted to approximately 1000 nematodes/mL.
Pure compounds were tested at concentrations of 10, 50, and 100 μg/mL in 48-well microtiter plates. The compounds, dissolved in MeOH, were added to the well plate and subsequently dried under nitrogen. After complete evaporation of the solvent, 300 μL of the nematode suspension (1000 nematodes/mL) was added to the compounds. Each treatment was replicated three times. MeOH was used as the negative control while 1 μg/mL Ivermectin served as the positive control. Nematodes were monitored 15 min after inoculation, and the plates were incubated at 24 °C and 150 rpm for 18 h. After incubation, both alive and dead nematodes were counted in three replicates under a stereomicroscope, and the mortality rate was calculated. Erect and non-moving nematodes were considered dead. […] The observed percentage of dead nematodes was corrected by considering the natural mortality observed in the negative control, using the Schneider-Orelli formula [30].

[15] = tested on: A431 (skin) epidermoid carcinoma cells; test: Cytotoxicity (MTT) assay; assay type: cell-based; details: Homo sapiens, A-431, read-out: IC50, Positive Control Epothilone B (nM)
Experimental: as §2, with “(A431). Epothilone B was used as the positive control.” for “(A431).”

[16] = tested on: A549 (lung) human lung carcinoma; test: Cytotoxicity (MTT) assay; assay type: cell-based; details: A549, read-out: IC50, Positive Control Epothilone B (nM)
Experimental: as §2, with “(A431). Epothilone B was used as the positive control.” for “(A431).”

[17] = tested on: MCF-7 (breast) adenocarcinoma; test: Cytotoxicity (MTT) assay; assay type: cell-based; details: Homo sapiens, MCF7, read-out: IC50, Positive Control Epothilone B (nM)
Experimental: as §2, with “(A431). Epothilone B was used as the positive control.” for “(A431).”

[18] = tested on: PC-3 (prostate) carcinoma; test: Cytotoxicity (MTT) assay; assay type: cell-based; details: Homo sapiens, read-out: IC50, Positive Control Epothilone B (nM)
Experimental: as §2, with “(A431). Epothilone B was used as the positive control.” for “(A431).”

[19] = 10 µg/mL, < 0: less active than negative control

| Molecule | MIC (µg/mL) [1] | MIC (µg/mL) [2] | MIC (µg/mL) [3] | MIC (µg/mL) [4] | MIC (µg/mL) [5] | MIC (µg/mL) [6] | MIC (µg/mL) [7] | MIC (µg/mL) [8] | MIC (µg/mL) [9] | MIC (µg/mL) [10] | MIC (µg/mL) [11] | MIC (µg/mL) [12] | IC50 [14] [nM] | Corrected mortality rate (%) (Caenorhabditis elegans; [19]) | Corrected mortality rate (%) (Caenorhabditis elegans; 50 µg/mL) | Corrected mortality rate (%) (Caenorhabditis elegans; 100 µg/mL) | also measured |
| --- | --- | --- | --- | --- | --- | --- | --- | --- | --- | --- | --- | --- | --- | --- | --- | --- | --- |
| 3S,4S-HMDA-L-Trp^1-L-Trp^2-L-Phe (lariat or depsi) [Compound 3, Beauveriolide U, previously undescribed cyclic tetradepsipeptide, HMDA-Trp-Trp-Phe, C42H49N5O5] | - | - | - | - | - | - | - | - | - | - | - | - | > 35000 | < 0 | 6.0 ± 1.5 | 32.1 ± 7.0 | IC50 ([13]; MTT assay, KB3.1 (cervix), read-out: IC50): > 35000 nM |
| CC(C)C[C@@H]1NC(=O)[C@H](Cc2ccccc2)OC(=O)[C@H](C)N(C)C(=O)[C@H](CC(C)C)NC(=O)[C@H](Cc2ccccc2)NC(=O)[C@H](C)N(C)C1=O [Compound 4, Cardinalisamide D] (cyclo([PhLac]L[NMeA]FL[NMeA])) | - | - | - | - | - | - | - | - | - | - | - | - | > 35000 | 13.7 ± 5.2 | 14.2 ± 4.9 | 23.4 ± 7.4 | IC50 [13]: 36200 nM |
| C/C(=C\c1csc(C)n1)[C@@H]1C[C@@H]2O[C@]2(C)CCC[C@H](C)[C@H](O)[C@@H](C)C(=O)C(C)(C)[C@@H](O)CC(=O)O1 [Epothilone B] |  |  |  |  |  |  |  |  |  |  |  |  |  |  |  |  | IC50 [15]: 0.06 nM; IC50 [16]: 0.05 nM; IC50 [17]: 0.07 nM; IC50 [18]: 0.09 nM |
| CNC(C)C1CCC(N)C(OC2C(N)CC(N)C(OC3OCC(C)(O)C(NC)C3O)C2O)O1 (stereo not shown) [Gentamycin, reference compound] |  |  |  |  |  |  |  |  |  |  |  |  |  |  |  |  | MIC [5]: 0.42 µg/mL (≈ 0.879 µM); MIC ([6]; DSM30191): 1.7 µg/mL (≈ 3.56 µM); MIC ([7]; DSM346): 0.42 µg/mL (≈ 0.879 µM); MIC ([11]; DSM1116): 0.83 µg/mL (≈ 1.74 µM) |
| NC[C@H]1O[C@H](O[C@H]2[C@H](O)[C@@H](O[C@H]3O[C@H](CO)[C@@H](O)[C@H](N)[C@H]3O)[C@H](N)C[C@@H]2N)[C@H](O)[C@@H](O)[C@@H]1O [Kanamycin, reference compound] |  |  |  |  |  |  |  |  |  |  |  |  |  |  |  |  | MIC [2]: 0.1 µg/mL (≈ 0.206 µM) |
